| Structure (SMILES) | melting point |
| --- | --- |
| COc1ccc(-c2ccc(COCCc3cccc(NS(=O)(=O)C(F)(F)F)c3)c(F)c2)cc1 [Example 32, N-{3-[2-(3-fluoro-4′-methoxy-biphenyl-4-ylmethoxy)-ethyl]-phenyl)-C,C,C-trifluoromethanesulfonamide] | 82 to 84 °C |
| Cc1c(COCc2cccc(-c3nn[nH]n3)c2)cccc1-c1ccccc1 [Example 33, 5-[3-(2-Methyl-biphenyl-3-ylmethoxymethyl)-phenyl]-2H-tetrazole] | 112 to 114 °C |
| O=S(=O)(Nc1cccc(CCOCc2cccc(-c3cc(Cl)cc(Cl)c3)c2)c1)C(F)(F)F [Example 34, N-{3-[2-(3′,5′-Dichloro-biphenyl-3-ylmethoxy)-ethyl]-phenyl)-C,C,C-trifluoro-methanesulfonamide] | 52 to 54 °C |
| O=S(=O)(Nc1cccc(CCOCc2ccc(-c3cc(Cl)cc(Cl)c3)cc2)c1)C(F)(F)F [Example 35, N-{3-[2-(3′,5′-Dichloro-biphenyl-4-ylmethoxy)-ethyl]-phenyl)-C,C,C-trifluoro-methanesulfonamide] | 70 to 72 °C |
| O=S(=O)(Nc1cccc(CCOCc2cccc(-c3ccc(F)cc3)c2)c1)C(F)(F)F [Example 36, N-{3-[2-(4′-Fluoro-biphenyl-3-ylmethoxy)-ethyl]-phenyl)-C,C,C-trifluoro-methanesulfonamide] | 48 to 50 °C |
| O=S(=O)(Nc1cccc(CCOCc2ccc(-c3ccc(F)cc3)cc2)c1)C(F)(F)F [Example 37, N-{3-[2-(4′-Fluoro-biphenyl-4-ylmethoxy)-ethyl]-phenyl)-C,C,C-trifluoro-methanesulfonamide] | 65 to 67 °C |
| NC(=O)Nc1ccc(CCOCc2ccccc2-c2ccccc2)cc1 [Example 38, {4-[2-(Biphenyl-2-ylmethoxy)-ethyl]-phenyl}-urea] | 143 to 144 °C |
| COc1ccc(-c2cccc(COCCc3cccc(NC(N)=O)c3)c2)cc1 [Example 39, {3-[2-(4′-Methoxy-biphenyl-3-ylmethoxy)-ethyl]-phenyl}-urea] | 87 to 89 °C |
| COc1ccc(-c2ccc(Cl)cc2)cc1COCCc1cccc(NS(=O)(=O)C(F)(F)F)c1 [Example 40, N-{3-[2-(4′-Chloro-4-methoxy-biphenyl-3-ylmethoxy)-ethyl]-phenyl}-C,C,C-trifluoromethanesulfonamide] | 99 to 101 °C |
| COc1ccc(-c2ccc(Cl)cc2)cc1COCCc1cccc(NC(N)=O)c1 [Example 41, {3-[2-(4′-Chloro-4-methoxy-biphenyl-3-ylmethoxy)-ethyl]-phenyl}-urea] | 155 °C (dec.) |
| O=S(=O)(Nc1cccc(CCOCc2csc(-c3ccc(C(F)(F)F)cc3)n2)c1)C(F)(F)F [Example 52, C,C,C-Trifluoro-N-(3-{2-[2-(4-trifluoromethyl-phenyl)-thiazol-4-ylmethoxy]-ethyl}-phenyl)-methanesulfonamide] | 117 to 119 °C |
| O=S(=O)(Nc1cccc(CCOCc2csc(-c3ccc(C(F)(F)F)cn3)n2)c1)C(F)(F)F [Example 57, C,C,C-Trifluoro-N-(3-{2-[2-(5-trifluoromethyl-pyridin-2-yl)-thiazol-4-yl-methoxy]ethyl}-phenyl)-methanesulfonamide] | 116 to 117 °C |
| O=S(=O)(Nc1cccc(CCOCc2csc(-c3ccccc3)n2)c1)C(F)(F)F [Example 58, C,C,C-Trifluoro-N-{3-[2-(2-phenyl-thiazol-4-ylmethoxy)-ethyl]phenyl}-methane sulfonamide] | 112 to 113 °C |
| COc1ccc(-c2nc(COCCc3cccc(NS(=O)(=O)C(F)(F)F)c3)cs2)cc1 [Example 59, C,C,C-Trifluoro-N-(3-{2-[2-(4-methoxy-phenyl)-thiazol-4-ylmethoxy]-ethyl}-phenyl)-methanesulfonamide] | 112 to 113 °C |
| O=S(=O)(Nc1cccc(CCOCc2csc(-c3ccccc3Cl)n2)c1)C(F)(F)F [Example 60, N-(3-{2-[2-(2-Chloro-phenyl)-thiazol-4-ylmethoxy]-ethyl}-phenyl)-C,C,C-trifluoro-methanesulfonamide] | 86 to 87 °C |
| O=S(=O)(Nc1cccc(CCOCc2csc(-c3ccc(OC(F)(F)F)cc3)n2)c1)C(F)(F)F [Example 61, C,C,C-Trifluoro-N-(3-{2-[2-(4-trifluoromethoxy-phenyl)-thiazol-4-yl-methoxy]-ethyl}-phenyl)-methanesulfonamide] | 115 to 116 °C |
| O=S(=O)(Nc1cccc(CCOCc2nc(-c3ccc(F)cc3)sc2Br)c1)C(F)(F)F [Example 62, N-(3-{2-[5-Bromo-2-(4-fluoro-phenyl)-thiazol-4-ylmethoxy]-ethyl}-phenyl)-C,C,C-trifluoromethanesulfonamide] | 84 to 85 °C |
| O=S(=O)(Nc1cccc(CCOCc2nc(-c3ccc(C(F)(F)F)cc3)sc2Cl)c1)C(F)(F)F [Example 63, N-(3-{2-[5-Chloro-2-(4-trifluoromethyl-phenyl)-thiazol-4-ylmethoxy]-ethyl}-phenyl)-C,C,C-trifluoromethanesulfonamide] | 107 to 109 °C |
| O=S(=O)(Nc1cccc(CCOCc2cccc(-c3ccc(F)cc3)n2)c1)C(F)(F)F [Example 64, C,C,C-Trifluoro-N-(3-{2-[6-(4-fluoro-phenyl)-pyridin-2-ylmethoxy]-ethyl}-phenyl)-methanesulfonamide] | 71 to 73 °C |
| O=S(=O)(Nc1cccc(CCOCc2cccc(-c3ccccc3)n2)c1)C(F)(F)F [Example 65, C,C,C-Trifluoro-N-{3-[2-(6-phenyl-pyridin-2-ylmethoxy)-ethyl]-phenyl}-methane sulfonamide] | 75 to 77 °C |
| O=S(=O)(Nc1cccc(CCOCc2sc3ccccc3c2Cl)c1)C(F)(F)F [Example 66, N-{3-[2-(3-Chloro-benzo[b]thiophen-2-ylmethoxy)-ethyl]-phenyl}-C,C,C-trifluoro-methanesulfonamide] | 85 to 87 °C |

Second part, the compound after the results:

| melting point | Structure (SMILES) |
| --- | --- |
| 90 to 92 °C | O=S(=O)(Nc1cccc(CCOCc2ccc(C3CCCCC3)cc2)c1)C(F)(F)F [Example 68, N-{3-[2-(4-cyclohexyl-benzyloxy)-ethyl]-phenyl}-C,C,C-trifluoro-methane sulfonamide] |
| 40 to 42 °C | CC(C)(C)c1ccc(COCCc2cccc(NS(=O)(=O)C(F)(F)F)c2)cc1 [Example 69, N-{3-[2-(4-tert-Butyl-benzyloxy)-ethyl]-phenyl}-C,C,C-trifluoro-methane sulfonamide] |
| 48 to 50 °C | O=S(=O)(Nc1cccc(CCOCc2ccc(Br)cc2F)c1)C(F)(F)F [Example 72, N-{3-[2-(4-Bromo-2-fluoro-benzyloxy)-ethyl]-phenyl}-C,C,C-trifluoro-methanesulfonamide] |
| 62 to 63 °C | O=S(=O)(Nc1cccc(CCOCc2cccc(OCc3ccccc3)c2)c1)C(F)(F)F [Example 73, N-{3-[2-(3-benzyloxy-benzyloxy)-ethyl]-phenyl}-C,C,C-trifluoro-methanesulfonamide] |
| 48 to 50 °C | O=S(=O)(Nc1cccc(CCOCc2ccc(I)cc2)c1)C(F)(F)F [Example 74, N-{3-[2-(4-Iodo-benzyloxy)-ethyl]-phenyl}-C,C,C-trifluoro-methanesulfonamide] |
| 47 to 49 °C | O=S(=O)(Nc1cccc(CCOCc2ccc(Oc3ccccc3)cc2)c1)C(F)(F)F [Example 76, N-{3-[2-(4-Phenoxy-benzyloxy)-ethyl]-phenyl}-C,C,C-trifluoro-methane sulfonamide] |
| 75 to 77 °C | CC(C)(C)c1ccc(-c2nc(COCCc3cccc(NS(=O)(=O)C(F)(F)F)c3)no2)cc1 [Example 81, N-{3-[2-(5-(4-tert-Butyl-phenyl)-[1,2,4]oxadiazol-3-ylmethoxy)-ethyl]-phenyl}-C,C,C-trifluoro-methanesulfonamide] |
| 83 to 86 °C | O=S(=O)(NCCc1cccc(OCc2noc(-c3ccc(C(F)(F)F)cc3)n2)c1)C(F)(F)F [Example 82, N-{2-[3-(5-(4-Trifluoromethyl-phenyl) [1,2,4]oxadiazol-3-ylmethoxy)-phenyl]-ethyl}-C,C,C-trifluoro-methanesulfonamide] |
| 62 to 64 °C | O=S(=O)(Nc1cccc(CCOCc2noc(-c3cccc(C(F)(F)F)c3)n2)c1)C(F)(F)F [Example 83, N-{3-[2-(5-(3-trifluoromethyl-phenyl)-[1,2,4]oxadiazol-3-ylmethoxy)-ethyl]-phenyl}-C,C,C-trifluoro-methanesulfonamide] |
| 52 to 54 °C | COc1cccc(-c2nc(COCCc3cccc(NS(=O)(=O)C(F)(F)F)c3)no2)c1 [Example 84, N-{3-[2-(5-(3-methoxy-phenyl)-[1,2,4]oxadiazol-3-ylmethoxy)-ethyl]-phenyl}-C,C,C-trifluoro-methanesulfonamide] |
| 88 to 90 °C | COc1ccc(-c2nc(COCCc3cccc(NS(=O)(=O)C(F)(F)F)c3)no2)cc1 [Example 85, N-{3-[2-(5-(4-methoxy-phenyl)-[1,2,4]oxadiazol-3-ylmethoxy)-ethyl]-phenyl}-C,C,C-trifluoro-methanesulfonamide] |
| 83 to 86 °C | O=S(=O)(Nc1cccc(CCOCc2noc(-c3ccc(C(F)(F)F)cc3)n2)c1)C(F)(F)F [Example 87, N-{3-[2-(5-(4-trifluoromethylphenyl)-[1,2,4]oxadiazol-3-ylmethoxy)-ethyl]-phenyl}-C,C,C-trifluoro-methanesulfonamide] |

From US6930131B2, “Aryl substituted 3-ethoxy phenyl trifluoromethane sulfonamides for the treatment of non-insulin dependent diabetes mellitus (NIDDM)” (Wyeth, priority 2002, dated 2005)
